Data reported in publication PMC11236979, “Iron-sulphur protein catalysed [4+2] cycloadditions in natural product biosynthesis” (Nature Communications, 2024).

Test system: T1, VtlG (P450)
T1 construct: recombinant from E. coli, purified; haem P450 monooxygenase
Test: UPLC product quantification at […] nm, Michaelis-Menten fit
Assay type: biochemical, Streptomyces spiroverticillatus
Conditions: mono-hydroxylation of 4 to 6; 5 nM VtlG, commercial spinach Fd 0.1 mg/mL, spinach FNR 1 unit/mL, 1 mM NADPH; 50 mM Tris-HCl pH 7.5, 30 °C

Km: 0.84 ± 0.26 µM
Structure (SMILES): CC1=CC=CC=CC(C)CNC(=O)CC(=O)C=CC=CCC(O)CC(O)C=CC=C1 (stereo not shown) [compound 4]
